From patent EP3293246A1, “LUBRICANT COMPOSITIONS CONTAINING DIUREA COMPOUNDS” (BASF SE, priority 2016, dated 2018)

experiment: Solubility 0.5% in base oil Yubase 4, visual inspection of appearance; format: physicochemical; details: 0.5 g compound stirred with 99.5 g Yubase 4 at 100°C for 4 hours, cooled to room temperature
Method: For the determination of the solubilities, 0.5 g of the compound under test was stirred with 99.5 g of Yubase 4 at 100°C for 4 hours and subsequently cooled to room temperature. The appearance of the solution was assessed by visual inspection.

Compound | Solubility 0.5% in Yubase 4; visible appearance
CCCCC(CC)CNC(=O)Nc1ccc(C)c(NC(=O)NCC(CC)CCCC)c1 (stereo not drawn) [Example 1] | no clear solution
Cc1ccc(NC(=O)NC(C)CCCC(C)C)cc1NC(=O)NC(C)CCCC(C)C (stereo not drawn) [Example 6] | no clear solution
CCCCCCCCC=CCCCCCCCCNC(=O)Nc1ccc(C)c(NC(=O)NCCCCCCCCC=CCCCCCCCC)c1 [Example 5] | no clear solution
